Results as given in publication PMC9564503, “Anabaenopeptins from Nostoc edaphicum CCNP1411” (International Journal of Environmental Research and Public …, 2022).
Numbered stars: 1 amine (or outer) side, 2 acyl side, 3 side chain; on linkers, the order of the positions; unused ones are H or OH. Bridge positions count the residues as written; N and C are the ends. Square brackets hold non-standard residues; d marks the D form. Peptide text beside a SMILES is read from it. hPhe = N[C@@H](CCc1ccccc1)C(=O)O; NMeN = CN[C@@H](CC(N)=O)C(=O)O; CO = O=C([*:1])[*:2]

Legend:
trypsin = assay: Trypsin inhibition assay; assay type: biochemical; conditions: class symbol in IC50 column
Description: The tests were performed in triplicates.
Table S2. Conditions and solvents used in the enzyme inhibition assays.
Enzyme Substrate Inhibitor bation time (min) ngth
Carboxypeptidase-A N-(4-methoxy-phenyl- Carboxypeptidase
(Sigma-Aldrich; azoformyl)-Phe-OH inhibitor from 5 min;
1.6 µM Montclair, CA, USA) (Sigma-Aldrich)
Elastase N-succinyl-Ala-Ala-Ala-p- Elastatinal
(Sigma-Aldrich) nitroanilide (Sigma-Aldrich) 20 min;
Thrombin N-p-tosyl-Gly-Pro-Lys-p- AEBSF
(Sigma-Aldrich) nitroanilide acetate salt (Sigma-Aldrich) 10 min;
Trypsin N-α-benzoyl-DL-arginine- Aprotinine
(Sigma-Aldrich) p-nitroanilide (Sigma-Aldrich) 15 min;
Figure S2. MRM chromatograms of anabaenopeptins produced by N. edaphicum CCNP1411.

CPA = system: CPA; parameters: method as in PMID 11000037, PMID 10340607, PMID 27641470; conditions: ref [9],[23],[87]; read-out: IC50 against CPA; cited from earlier work

| Molecule | Enzyme Inhibition TRY (activity class) (trypsin) | IC50 (CPA) |
| --- | --- | --- |
| CC[C@H](C)[C@@H]1NC(=O)[C@H](NC(=O)N[C@H](C(=O)O)C(C)C)CCCCNC(=O)[C@H](Cc2ccccc2)NC(=O)[C@H](CC(N)=O)NC(=O)[C@H](CCc2ccccc2)NC1=O [AP806Ne, [Lys–Leu*–Hph–Asn–Phe]CO–Val] ({Val-CO}-[dK]I[hPhe]NF; lactam 1-C) | – (not active (inhibition below 10%)) | – |
| CC[C@H](C)[C@H](NC(=O)N[C@@H]1CCCCNC(=O)[C@H](Cc2ccccc2)NC(=O)[C@H](CC(N)=O)N(C)C(=O)[C@H](CCc2ccccc2)NC(=O)[C@H]([C@@H](C)CC)NC1=O)C(=O)O [AP SA6, [Lys–Leu*–Hph–MeAsn–Phe]CO–Leu*] ({Ile-CO}-[dK]I[hPhe][NMeN]F; lactam 1-C) | – (not active (inhibition below 10%)) | – |
| Tyr+CO[Lys+Ile+Hty+MeHty+Ile] [AP G] | – | 2 nM |
